# Reference: paper PMC4578755, “Development of novel cellular histone-binding and chromatin-displacement assays for bromodomain drug discovery” (Epigenetics & Chromatin, 2015)
# Biological target: T1, endogenous TRIM24 in OV90 cells (Homo sapiens, UniProt O15164)
# T1 construct: non-transfected OV90 cells looking at endogenous TRIM24; endogenous in cells; host or cells: OV90
# T1 sequence (O15164 1-1050): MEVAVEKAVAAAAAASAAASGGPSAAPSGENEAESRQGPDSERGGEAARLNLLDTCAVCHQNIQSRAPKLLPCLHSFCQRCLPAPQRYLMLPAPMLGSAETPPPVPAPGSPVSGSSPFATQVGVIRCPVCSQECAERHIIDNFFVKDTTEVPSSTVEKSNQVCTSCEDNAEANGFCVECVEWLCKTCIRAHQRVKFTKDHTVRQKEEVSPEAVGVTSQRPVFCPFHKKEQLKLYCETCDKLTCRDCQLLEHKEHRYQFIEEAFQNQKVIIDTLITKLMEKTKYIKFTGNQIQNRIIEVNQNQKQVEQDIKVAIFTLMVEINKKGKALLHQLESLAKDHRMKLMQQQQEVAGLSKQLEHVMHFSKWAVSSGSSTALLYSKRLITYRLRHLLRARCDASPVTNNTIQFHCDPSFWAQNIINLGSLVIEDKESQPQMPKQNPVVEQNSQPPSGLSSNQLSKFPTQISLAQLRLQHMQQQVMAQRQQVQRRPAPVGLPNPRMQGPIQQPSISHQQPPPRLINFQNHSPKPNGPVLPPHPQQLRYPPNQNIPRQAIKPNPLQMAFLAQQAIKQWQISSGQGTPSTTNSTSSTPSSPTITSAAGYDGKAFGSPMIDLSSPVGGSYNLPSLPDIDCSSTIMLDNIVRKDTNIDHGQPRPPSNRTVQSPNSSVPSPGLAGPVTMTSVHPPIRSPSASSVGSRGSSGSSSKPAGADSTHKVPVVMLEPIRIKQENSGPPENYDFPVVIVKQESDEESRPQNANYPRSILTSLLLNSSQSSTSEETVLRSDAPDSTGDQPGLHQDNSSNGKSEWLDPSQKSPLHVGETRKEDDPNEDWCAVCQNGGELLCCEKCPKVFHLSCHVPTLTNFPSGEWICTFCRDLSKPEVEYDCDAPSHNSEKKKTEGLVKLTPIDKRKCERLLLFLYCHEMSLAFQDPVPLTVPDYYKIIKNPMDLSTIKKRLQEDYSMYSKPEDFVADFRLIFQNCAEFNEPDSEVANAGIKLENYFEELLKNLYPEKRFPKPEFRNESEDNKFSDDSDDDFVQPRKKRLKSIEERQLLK
# Experiment: In situ cell extraction with IF in OV90 cells
# Assay type: cell-based
# Experimental: OV90 or HeLa cells (20,000 cells/100 µL) were seeded into 96-well plates (Corning Costar #3603) using RPMI or DMEM medium, respectively, supplemented with 10 % FBS and grown overnight. Test agents were serially diluted in DMSO (with or without SAHA) to generate 10X master compound plates. From here, 11 µL was transferred into each well containing 100 µL of growth media followed by shaking on a rotation table (15 min, 300 rpm at RT) and incubation at 37 °C for 2 h. Plates were washed once with PBS (150 µL/well) and then with cold, freshly prepared Cytoskeleton (CSK) Buffer (10 mM PIPES, 300 mM Sucrose, 100 mM NaCl, 3 mM MgCl2; pH = 6.8). Immediately thereafter, soluble, non-chromatin-bound proteins were extracted by addition of cold CSK Buffer supplemented with 0.5 % Triton X-100 (150 µL per well) for 10 min at 4 °C followed by 4 % paraformaldehyde fixation (10 min at RT) (Additional file 1: Table S3).
# Standard IF procedures were used. Briefly, cells were permeabilized (0.5 % Triton X-100 in PBS) for 15 min and incubated with blocking solution (DAKO #X0909) for 30 min. The following primary antibodies were used: goat anti-V5 (Bethyl #A190-119A) 1:200; mouse anti-FLAG (Sigma #F1804) 1:200; rabbit anti-BRD4 (Abcam #ab128874) 1:200; rabbit anti-TRIM24 (Proteintech #14208-1-AP) 1:400; rabbit anti-K3K23Ac (Cell Signaling #8848) 1:200, and mouse anti-histone H3 (Active Motif #39763) 1:4000. Alexa Fluor-conjugated secondary antibodies were from Invitrogen and Hoechst 33342 (Invitrogen, #H3570) was used for nuclei counterstaining (10 µg/ml). For each Alexa fluorochrome, images (4–10 fields per well; 20X magnifications) were acquired using the Operetta High-Content Screening System (PerkinElmer). Image analysis was performed in Harmony software (PerkinElmer) by selecting nuclei and cytoplasm in Hoechst channel. Gating for single cells of flat morphology was done based on nuclei area, roundness and intensity of Hoechst in the nucleus and in the cytoplasm. In every gated cell, the mean signal intensity value for each fluorochrome was calculated separately in nucleus and cytoplasm. The specific nuclear signal was estimated subtracting mean cytoplasmic value from nuclear; and average value was calculated using at least 1000 cells in each well.
# Supplemental Table S3 (Zhan et al.)
# Table S3. In Situ Cell Extraction Procedure (IF)
# Step Parameter Solution Volume Time Temp (°C)
# Seed cells DMEM supplemented with 10 % FBS 37°C,
# 2 SAHA treatment SAHA (50 µM) in DMEM with 10% FBS 12 µL 2h 37°C,
# 3 Prepare Master 100X final concentration in assay 30 µL […]
# Image analysis: The analysis was performed in Harmony (PerkinElmer) software by selecting nuclei and cytoplasm in Hoechst 33342 channel . […] For each channel “mean nuclear signal“ was calculated as “mean […]
Structure (SMILES),"Histone H3 protein levels (OV90, 10 µM, 2 h)",Chromatin binding of endogenous TRIM24 (OV90 cells),Time to displacement of endogenous TRIM24 from chromatin (non-transfected OV90 cells) [min],"Mean IF nuclei intensity of endogenous TRIM24 (OV90, SAHA treatment)"
"Cc1nc(S(=O)(=O)Nc2cc3c(cc2Oc2cccc(OCC(C)C)c2)n(C)c(=O)n3C)cn1C [IACS-6558, N-{1,3-dimethyl-6-[3-(2-methylpropoxy)phenoxy]-2-oxo-2,3-dihydro-1H-1,3-benzodiazol-5-yl}-1,2-dimethyl-1H-imidazole-4-sulfonamide]",unchanged,readily reduced,≤ 5,
"O=C(CCCCCCC(=O)Nc1ccccc1)NO [SAHA, Suberoylanilide Hydroxamic Acid]",,,,did not change
